From paper PMC4520450, “Procyanidins Negatively Affect the Activity of the Phosphatases of Regenerating Liver” (PLoS ONE, 2015)

How the values were obtained:
[1] = test system: HEK293 cells (empty vector, PRL-1 and PRL-3 overexpressing); assay: Cytotoxicity by flow cytometry with propidium iodide; type: cell-based; details: 24 h
Source text: To study the effects of procyanidins on PRL-1 and PRL-3 in cells, the trimeric catechin (procyanidin C2, 9) was chosen as a representative example due to its strong inhibitor activity in vitro toward both PRL-s and its smaller size compared to the higher oligomers, which could influence cell permeability. HEK293 cells stably overexpressing PRL-1 and PRL-3 were chosen as model cell line. As a control cell line, HEK293 cells transfected with the empty vector were utilized (see the Experimental Procedures). To avoid false positive results due to cell death, first cell viability was studied in a concentration dependent manner by using flow cytometry. Therefore, cells were treated with different concentrations of compound 9 for 24 h, harvested, and then the ratio of living to dead cells was determined using propidium iodide (Fig 5).
Fig 5 Cytotoxicity of procyanidin C2 (9) in HEK293 cells. Cells were treated with 50, 150 or 300 μM of 9 in the growth medium for 24 h. Cells were harvested, resuspended in PBS buffer and incubated with propidium iodide (1 mg/mL) for 5 min on ice. 10,000 events were set for the number of living cells. The number of living cells was divided by the number of total cells counted and given as percentage of cell survival. Data represent means ± standard errors of the mean (n = 3).
Fig 7 A) Cytotoxicity of procyanidin B3 (8) in HEK293 cells. Cells were treated with 50, 75 or 100 μM of 8 in the growth medium for 24 h. Cells were harvested, resuspended in PBS buffer and incubated with propidium iodide (1 mg/mL) for 5 min on ice. 10,000 events were set for the number of living cells. The number of living cells was divided by the number of total cells counted and given as percentage of cell survival. Data represent means ± standard errors of the mean (n = 3). B) Wound healing abilities of PRL-1 or PRL-3 overexpressing or empty vector control HEK293 cell lines were analyzed in the presence of compound 8 or medium only. Cells were seeded at a concentration of 800,000 cells per insert and procyanidin B3 (8) was added at a concentration of 50 and 75 μM. Speed of migration is shown for combined data from different replicates, as mean ± SD (n = 40–77). Two-sided t-tests with Welsh correction were performed for p < 0.05. ns = not significant;***: < 0.001; **: < 0.01; *: < 0.05.
Flow cytometry was used to determine the ratio of living to dead cells compared to the control. HEK293 empty vector and PRL-3 overexpressing cells were seeded in a transparent 6-well plate with 400,000 cells/well in DMEM medium without Phenol red, supplemented with 10% FBS, 1% glutamine and 0.2% hygromycin and blasticidin. For induction of PRL-3 expression, 0.1% tetracycline was added. After 24 hours incubation at 37°C, procyanidins 8 or 9 dissolved in growth medium and growth medium as a control were added to the respective wells in the indicated final concentrations and incubated for another 24 hours. Then, the medium was removed and collected in Eppendorf tubes, centrifuged for 5 min at 500 rpm and the supernatant removed. Then 1 mL of PBS (10%) was added to each well and the cells detached with a cell scraper. […] After thorough mixing the cell suspension was injected into a LSR- Fortessa Bench Top Analyzer (Beckton Dickinson) and the number of living and dead cells counted. […] The number of living cells was divided by the number of total cells counted and given as percentage of cell survival.

[2] = target: T1, PTP1B (Homo sapiens, UniProt P18031); assay: DiFMUP assay for PTP1B, TCPTP, VHR; type: biochemical; details: 12.5 μM, 30 min incubation, 20 μM DiFMUP, 50 nM enzyme
T1 construct: made in house
T1 sequence (P18031 1-435): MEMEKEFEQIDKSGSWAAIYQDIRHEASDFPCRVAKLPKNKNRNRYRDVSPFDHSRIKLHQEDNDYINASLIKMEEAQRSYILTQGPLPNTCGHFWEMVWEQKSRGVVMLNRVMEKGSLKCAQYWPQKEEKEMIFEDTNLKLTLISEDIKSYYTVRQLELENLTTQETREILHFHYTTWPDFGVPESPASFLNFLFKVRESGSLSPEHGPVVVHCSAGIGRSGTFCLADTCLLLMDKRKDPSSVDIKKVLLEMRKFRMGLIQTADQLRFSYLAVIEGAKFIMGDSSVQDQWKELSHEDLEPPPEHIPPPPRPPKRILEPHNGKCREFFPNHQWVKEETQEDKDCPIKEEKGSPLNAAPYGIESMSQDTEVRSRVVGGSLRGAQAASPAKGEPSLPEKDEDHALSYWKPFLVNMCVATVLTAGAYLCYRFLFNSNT
Description: As an extension of our studies we included PTP1B, VHR and TCPTB as examples for phosphotyrosine specific phosphatases in our activity studies, because tea extracts were reported to inhibit PTP1B [43]. For comparison with PRL-3, these proteins were used in the same concentration (50 nM) as PRL-3 and DiFMUP was also used as a substrate in 20 μM concentration. The enzymes were incubated with three different concentrations of procyanidin C2 (9) for 30 min before the measurement.
Fig 3 Effect of procyanidin C2 (9) on the phosphatase activity of VHR, PTP1B and TCPTP using DiFMUP as a substrate. Proteins were incubated with compound 9 for 30 min., phosphatase activity measurements were performed using 20 μM DiFMUP. Phosphatase activity in the absence of compound 9 was set as 100%. Data represent means ± standard errors of the mean (n = 3).
DiFMUP assay for PTP1B, TCPTP, VHR: In a final reaction volume of 100 μL the PTPs (50 nM final concentration) were incubated with […] of procyanidin C2 (9) for 30 minutes at 25°C. The buffer conditions were pH 7.2, 4-/2-Hydroxyethyl)-1-piperazineethanesulfonic acid (HEPES) 25 mM, EDTA 2.5 mM, DTT 2.0 mM, NaCl 124.4 mM. After the incubation time 20 μL DiFMUP was added to reach a final concentration of 20 μM. On a Tecan safire2 (Tecan, Salzburg, Austria) plate reader dephosphorylation of the substrate to its fluorescent product was monitored by following the emission at […] for 10 minutes. All measurements were done in triplicates, and the experiments were repeated at least three times. The slopes of the initial phases were obtained by linear regression of the data points. The normalized reaction rates were plotted versus the log of the inhibitor concentrations and the IC50 values were obtained by fitting the curves using the one site competition model of GraphPad Prism (GraphPad Software, Version 5). Due to the high water solubility of 9 DMSO was not required and measurements were done in assay buffer only.

[3] = target: T2, PRL-3 (Homo sapiens, UniProt O75365); assay: DiFMUP phosphatase activity assay for PRLs; type: biochemical; details: 20 μM DiFMUP
T2 construct: His-TEV (cleaved yes); made in house
T2 sequence (O75365 whole entry): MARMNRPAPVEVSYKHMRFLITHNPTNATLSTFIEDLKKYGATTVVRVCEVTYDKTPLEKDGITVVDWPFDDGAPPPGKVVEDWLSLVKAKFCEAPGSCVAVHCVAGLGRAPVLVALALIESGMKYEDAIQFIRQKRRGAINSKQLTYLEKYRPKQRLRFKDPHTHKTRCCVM

For `Oc1cc(O)c2c(c1)O[C@H](c1ccc(O)c(O)c1)[C@@H](O)[C@@H]2c1c(O)cc(O)c2c1O[C@H](c1ccc(O)c(O)c1)[C@@H](O)C2` [Procyanidin B3 (8), Procyanidin B3], the cytotoxic effects ([1]; 50, 75 and 100 μM, all three cell lines) was “did not show any cytotoxic effects” and the “concentration up to which not cytotoxic” value [1] was “at least 100 μM”.

With `Oc1cc(O)c2c(c1)O[C@H](c1ccc(O)c(O)c1)[C@@H](O)[C@@H]2c1c(O)cc(O)c2c1O[C@H](c1ccc(O)c(O)c1)[C@@H](O)[C@@H]2c1c(O)cc(O)c2c1O[C@H](c1ccc(O)c(O)c1)[C@@H](O)C2` [Procyanidin C2 (9), Procyanidin C2] the “concentration up to which not cytotoxic” value ([1]; human) was “up to 50 μM”, the “PTP1B phosphatase activity compared to the control” value [2] was 75–85% and the “PRL-3 phosphatase activity compared to the control” value ([3]; 12.5 μM, 30 min incubation, 50 nM enzyme) was 75–85%. The “inhibition of PRL-3 activity” value ([3]; 25 μM and 50 μM) was “inhibited in a concentration dependent manner”.
